Reference: publication PMC4963206 (ChemMedChem, 2016)
Where two headings read alike, the source gives them in different places.

Assays:
AR230^R cells = assay: Phenotypic screening / cytotoxicity in TKI-resistant CML cell line AR230^R; type: cell-based; conditions: for Fold Difference: Table 3, AR230 vs AR230^R; for IC50: read-out: IC50 AR230^R
AR230 cells = assay: Phenotypic screening / cytotoxicity in CML cell line AR230; type: cell-based; conditions: read-out: IC50 AR230

**Q.** With `O=C(O)c1ccc(N(Cc2ccc(C3CCOCC3)cc2)C(=O)CN(C2CC2)S(=O)(=O)c2c(F)c(F)c(F)c(F)c2F)cc1` [DR-4-042] as the compound, how does the “Fold Difference” value (AR230^R cells) read?
**A.** Its value is 1.12.

**Q.** And the IC50 (AR230^R cells; Table 3)?
**A.** Its IC50 is 4.2 µM.

**Q.** And the IC50 (AR230 cells; Table 3)?
**A.** The IC50 was 4.7 µM.

**Q.** For `O=C(O)c1ccc(N(Cc2ccc(F)cc2)C(=O)CN(C2CC2)S(=O)(=O)c2c(F)c(F)c(F)c(F)c2F)cc1` [PSL-3-122], which “Fold Difference” value (AR230^R cells) is on record?
**A.** The value was 2.03.

**Q.** And the IC50 (AR230^R cells; Table 3)?
**A.** The IC50 was 3 µM.

**Q.** What about the IC50 (AR230 cells; Table 3) of the same compound?
**A.** Its IC50 is 6.1 µM.

**Q.** How did the “Fold Difference” value (AR230^R cells) turn out when `O=C(O)c1ccc(N(Cc2ccc(Cl)cc2)C(=O)CN(C2CC2)S(=O)(=O)c2c(F)c(F)c(F)c(F)c2F)cc1` [DR-4-003, 4-(N-(4-Chlorobenzyl)-2-((N-cyclopropyl-2,3,4,5,6-pentafluorophenyl)sulfonamido)acetamido)benzoic acid] was run?
**A.** The value was 2.41.

**Q.** What about the IC50 (AR230^R cells; Table 3) of the same compound?
**A.** The IC50 was 1.7 µM.

**Q.** What about the IC50 (AR230 cells; Table 3) of the same compound?
**A.** Its IC50 is 4.1 µM.

**Q.** How did the IC50 (AR230^R cells; Table 4) turn out when `O=C(O)c1ccc(N(Cc2ccc(C3CCCC3)cc2)C(=O)CN(C2CC2)S(=O)(=O)c2c(F)c(F)c(Cl)c(F)c2F)cc1` [AM1-112, 4-(N-(4-Cyclopentylbenzyl)-2-((N-cyclopropyl-2,3,5,6-tetrafluoro-4-chlorophenyl)sulfonamido)acetamido)benzoic acid] was run?
**A.** Its IC50 is 30.7 µM.

**Q.** What about the IC50 (AR230 cells; Table 4) of the same compound?
**A.** The IC50 was > 32 µM.

**Q.** What does the source list for `O=C(O)c1ccc(N(Cc2ccc(C3CC3)cc2)C(=O)CN(C2CC2)S(=O)(=O)c2c(F)c(F)c(F)c(F)c2F)cc1` [PSL-3-132]?
**A.** Fold Difference (AR230^R cells): 1.75; IC50 (AR230^R cells; Table 3): 2.4 µM; IC50 (AR230 cells; Table 3): 4.2 µM

**Q.** With `O=C(O)c1ccc(N(Cc2ccc(C3CCCC3)cc2)C(=O)CNS(=O)(=O)c2c(F)c(F)c(F)c(F)c2F)cc1` [DR-3-111, 4-(N-(4-Cyclopentylbenzyl)-2-((perfluorophenyl)sulfonamido)acetamido)benzoic acid] as the compound, how does the “fold reduction in activity vs SH-4-54” value (AR230^R cells; AR230^R cells) read?
**A.** Its value is ~5 fold.

**Q.** What about the IC50 (AR230^R cells) of the same compound?
**A.** Its IC50 is 15.6 µM.

**Q.** And the IC50 (AR230 cells)?
**A.** The IC50 was 11.4 µM.

**Q.** What does the source list for `O=C(O)c1ccc(N(Cc2ccc(C3CCCC3)cc2)C(=O)CN(C2CC2)S(=O)(=O)c2ccccn2)cc1` [RG1-085, 4-(N-(4-Cyclopentylbenzyl)-2-(N-cyclopropylpyridine-2-sulfonamido)acetamido)benzoic acid]?
**A.** IC50 (AR230^R cells): > 32 µM; IC50 (AR230 cells): > 32 µM

**Q.** What does the source list for `O=C(O)c1ccc(N(Cc2ccc(C3CCCC3)cc2)C(=O)CN(C2CC2)S(=O)(=O)c2c(F)c(F)c(C(F)(F)F)c(F)c2F)cc1` [AM1-066, 4-(N-(4-Cyclopentylbenzyl)-2-((N-cyclopropyl-2,3,5,6-tetrafluoro-4-(trifluoromethyl)phenyl)sulfonamido)acetamido)benzoic acid]?
**A.** IC50 (AR230^R cells; Table 4): 21.6 µM; IC50 (AR230 cells; Table 4): 20.4 µM

**Q.** For `O=C(O)c1ccc(N(Cc2ccc(C3CCCC3)cc2)C(=O)CN(C2CC2)S(=O)(=O)c2c(F)c(F)c(F)c(F)c2F)cc1` [DR-3-093, 4-(N-(4-Cyclopentylbenzyl)-2-((N-cyclopropyl-2,3,4,5,6-pentafluorophenyl)sulfonamido)acetamido)benzoic acid], which “Fold Difference” value (AR230^R cells) is on record?
**A.** The value was 2.75.

**Q.** What about the IC50 (AR230^R cells; Table 3) of the same compound?
**A.** Its IC50 is 1.2 µM.

**Q.** What about the IC50 (AR230 cells; Table 3) of the same compound?
**A.** The IC50 was 3.3 µM.

**Q.** With `Cc1c(F)c(F)c(S(=O)(=O)N(CC(=O)N(Cc2ccc(C3CCCC3)cc2)c2ccc(C(=O)O)cc2)C2CC2)c(F)c1F` [AM1-030, 4-(N-(4-Cyclopentylbenzyl)-2-((N-cyclopropyl-2,3,5,6-tetrafluoro-4-methylphenyl)sulfonamido)acetamido)benzoic acid] as the compound, how does the IC50 (AR230^R cells; Table 4) read?
**A.** The IC50 was 18.6 µM.

**Q.** And the IC50 (AR230 cells; Table 4)?
**A.** The IC50 was > 32 µM.

**Q.** `CC(C)N(CC(=O)N(Cc1ccc(C2CCCCC2)cc1)c1ccc(C(=O)O)cc1)S(=O)(=O)c1c(F)c(F)c(F)c(F)c1F` [PSL-3-40, 4-(N-(4-cyclohexylbenzyl)-2-(2,3,4,5,6-pentafluoro-N-isopropylphenylsulfonamido)acetamido)benzoic acid] was tested. Which IC50 (AR230^R cells) did it give?
**A.** Its IC50 is 14.2 µM.

**Q.** What about the IC50 (AR230 cells) of the same compound?
**A.** The IC50 was 8.7 µM.

**Q.** For `O=C(O)c1ccc(N(Cc2ccc(C3CCCC3)cc2)C(=O)CN(C2CC2)S(=O)(=O)c2c(F)c(F)cc(F)c2F)cc1` [AM1-020, 4-(N-(4-Cyclopentylbenzyl)-2-((N-cyclopropyl-2,3,5,6-tetrafluorophenyl)sulfonamido)acetamido)benzoic acid], which IC50 (AR230^R cells; Table 4) is on record?
**A.** The IC50 was 13.1 µM.

**Q.** What about the IC50 (AR230 cells; Table 4) of the same compound?
**A.** Its IC50 is > 32 µM.

**Q.** What does the source list for `CC(C)(C)c1ccc(CN(C(=O)CN(C2CC2)S(=O)(=O)c2ccc(F)cc2)c2ccc(C(=O)O)cc2)cc1` [AES1-094, 4-(N-(4-(tert-butyl)benzyl)-2-((N-cyclopropyl-4-fluorophenyl)sulfonamido)acetamido)benzoic acid]?
**A.** IC50 (AR230^R cells; Table 4): 10.6 µM; IC50 (AR230 cells; Table 4): > 32 µM

**Q.** `O=C(O)c1ccc(N(Cc2ccc(C3CCCC3)cc2)C(=O)CN(C2CC2)S(=O)(=O)c2c(F)c(F)c(Br)c(F)c2F)cc1` [AM1-077, 4-(N-(4-Cyclopentylbenzyl)-2-((N-cyclopropyl-2,3,5,6-tetrafluoro-4-bromophenyl)sulfonamido)acetamido)benzoic acid] was tested. Which IC50 (AR230^R cells; Table 4) did it give?
**A.** The IC50 was 20.3 µM.

**Q.** And the IC50 (AR230 cells; Table 4)?
**A.** The IC50 was 25.1 µM.

**Q.** Which “Fold Difference” value (AR230^R cells) does the source give for `O=C(O)c1ccc(N(Cc2ccc(C3CCCCCC3)cc2)C(=O)CN(C2CC2)S(=O)(=O)c2c(F)c(F)c(F)c(F)c2F)cc1` [DR-3-165, 4-(N-(4-Cycloheptylbenzyl)-2-((N-cyclopropyl-2,3,4,5,6-pentafluorophenyl)sulfonamido)acetamido)benzoic acid] here?
**A.** The value was 2.45.

**Q.** What about the IC50 (AR230^R cells; Table 3) of the same compound?
**A.** Its IC50 is 1.1 µM.

**Q.** What about the IC50 (AR230 cells; Table 3) of the same compound?
**A.** The IC50 was 2.7 µM.

**Q.** Which “Fold Difference” value (AR230^R cells) does the source give for `CC1(C)CCC(c2ccc(CN(C(=O)CN(C3CC3)S(=O)(=O)c3c(F)c(F)c(F)c(F)c3F)c3ccc(C(=O)O)cc3)cc2)CC1` [DR-3-119, 4-(2-((N-Cyclopropyl-2,3,4,5,6-pentafluorophenyl)sulfonamido)-N-(4-(4,4-dimethylcyclohexyl)benzyl)acetamido)benzoic acid] here?
**A.** The value was 1.81.

**Q.** And the IC50 (AR230^R cells; Table 3)?
**A.** Its IC50 is 3.2 µM.

**Q.** What about the IC50 (AR230 cells; Table 3) of the same compound?
**A.** The IC50 was 5.8 µM.

**Q.** What does the source list for `O=C(O)c1ccc(N(Cc2ccc(C3CCCCC3)cc2)C(=O)CN(C2CC2)S(=O)(=O)c2c(F)c(F)c(F)c(F)c2F)cc1` [DR-3-036]?
**A.** IC50 (AR230^R cells; Table 2): 2.6 µM; IC50 (AR230 cells; Table 2): 4.3 µM

**Q.** With `O=C(O)c1ccc(N(Cc2ccc(C3CCC3)cc2)C(=O)CN(C2CC2)S(=O)(=O)c2c(F)c(F)c(F)c(F)c2F)cc1` [DR-4-020, 4-(N-(4-Cyclobutylbenzyl)-2-((N-cyclopropyl-2,3,4,5,6-pentafluorophenyl)sulfonamido)acetamido)benzoic acid] as the compound, how does the “Fold Difference” value (AR230^R cells) read?
**A.** Its value is 2.05.

**Q.** And the IC50 (AR230^R cells; Table 3)?
**A.** The IC50 was 4.2 µM.

**Q.** What about the IC50 (AR230 cells; Table 3) of the same compound?
**A.** The IC50 was 8.6 µM.

**Q.** How did the “Fold Difference” value (AR230^R cells) turn out when `O=C(O)c1ccc(N(Cc2ccccc2)C(=O)CN(C2CC2)S(=O)(=O)c2c(F)c(F)c(F)c(F)c2F)cc1` [PSL-3-115] was run?
**A.** Its value is 2.26.

**Q.** And the IC50 (AR230^R cells; Table 3)?
**A.** Its IC50 is 2.3 µM.

**Q.** And the IC50 (AR230 cells; Table 3)?
**A.** Its IC50 is 5.2 µM.

**Q.** How did the IC50 (AR230^R cells) turn out when `O=C(O)c1ccc(N(Cc2ccc(C3CCCC3)cc2)C(=O)CN(C2CC2)S(=O)(=O)c2cccnc2)cc1` [RG1-066, 4-(N-(4-Cyclopentylbenzyl)-2-(N-cyclopropylpyridine-3-sulfonamido)acetamido)benzoic acid] was run?
**A.** Its IC50 is > 32 µM.

**Q.** And the IC50 (AR230 cells)?
**A.** The IC50 was > 32 µM.

**Q.** What does the source list for `O=C(O)c1ccc(N(Cc2ccc(C(F)(F)F)cc2)C(=O)CN(C2CC2)S(=O)(=O)c2c(F)c(F)c(F)c(F)c2F)cc1` [DR-3-186, 4-(2-(N-cyclopropyl-2,3,4,5,6-pentafluorophenylsulfonamido)-N-(4-(trifluoromethyl)benzyl)acetamido)benzoic acid]?
**A.** fold selectivity for AR230^R over AR230 cells (AR230^R cells): < 2 fold; Fold Difference (AR230^R cells): 1.94; IC50 (AR230^R cells): 0.72 µM; IC50 (AR230 cells): 1.4 µM

**Q.** What does the source list for `CC(C)(C)c1ccc(CN(C(=O)CN(C2CC2)S(=O)(=O)c2c(F)c(F)c(F)c(F)c2F)c2ccc(C(=O)O)cc2)cc1` [DR-3-162, 4-(N-(4-(tert-butyl)benzyl)-2-((N-cyclopropyl-2,3,4,5,6-pentafluorophenyl)sulfonamido)acetamido)benzoic acid]?
**A.** fold selectivity for AR230^R over AR230 cells (AR230^R cells): 4 fold; fold more potent (AR230^R cells; AR230^R cells): 3 fold; Fold Difference (AR230^R cells): 4; IC50 (AR230^R cells; Table 3): 0.8 µM; IC50 (AR230 cells; Table 3): 3.2 µM

**Q.** Which IC50 (AR230^R cells; Table 4) does the source give for `O=C(O)c1ccc(N(Cc2ccc(C3CCCC3)cc2)C(=O)CN(C2CC2)S(=O)(=O)c2ccc(F)cn2)cc1` [AM1-117, 4-(N-(4-Cyclopentylbenzyl)-2-((N-cyclopropyl-5-fluoropyridine)-2-sulfonamido)acetamido)benzoic acid] here?
**A.** Its IC50 is > 32 µM.

**Q.** And the IC50 (AR230 cells; Table 4)?
**A.** Its IC50 is > 32 µM.

**Q.** Which IC50 (AR230^R cells; Table 4) does the source give for `O=C(O)c1ccc(N(Cc2ccc(C3CCCC3)cc2)C(=O)CN(C2CC2)S(=O)(=O)c2ccc(F)nc2)cc1` [AM1-116, 4-(N-(4-Cyclopentylbenzyl)-2-((N-cyclopropyl-6-fluoropyridine)-3-sulfonamido)acetamido)benzoic acid] here?
**A.** The IC50 was > 32 µM.

**Q.** And the IC50 (AR230 cells; Table 4)?
**A.** The IC50 was > 32 µM.

**Q.** With `O=C(O)c1ccc(N(Cc2ccc(N3CCOCC3)cc2)C(=O)CN(C2CC2)S(=O)(=O)c2c(F)c(F)c(F)c(F)c2F)cc1` [PSL-3-089] as the compound, how does the “Fold Difference” value (AR230^R cells) read?
**A.** The value was 1.42.

**Q.** And the IC50 (AR230^R cells; Table 3)?
**A.** The IC50 was 5.2 µM.

**Q.** And the IC50 (AR230 cells; Table 3)?
**A.** Its IC50 is 7.4 µM.
